Columns and labels:
[1] = tested on: Maize; test: Regular maize pot experiment (potting soil); assay type: in vivo, maize cultivar DKC 2931; conditions: low phosphate, 10 μM
Description: All Arabidopsis plant experiments were performed using the Arabidopsis thaliana Columbia-0 background. The Arabidopsis pSPX1::GUS line is described in the Plant Journal 2008, 54: 965-975. For rice, the cultivar Nipponbare was used. For maize, the cultivars DKC 2931 and B104 were used for regular pot experiments and sand-based pot experiments, respectively. For soybean, the cultivar Primus was used. […] The medium was solidified due to the addition of 0.6% Gelrite, unless stated otherwise. In case of vertical plates (root length and root hair measurements), the medium was supplied with 0.5% of sucrose and 1 μM (low phosphate, 1 μM KH2PO4, 9.9 mM KCl), 10 μM (low phosphate 10 μM KH2PO4, 9.9 mM KCl) or 1.25 mM KH2PO4 (high phosphate). Arabidopsis seeds were stratified for 2 days at 4° C. before germination. Seedlings were germinated in climate-controlled growth chambers at 22° C. under continuous light (100 μmol m^−2 s^−1). Husked rice seeds were germinated on wetted Whatman paper for 2 days at 37° C. and then transferred to Sterivent boxes or square Petri dishes with solid medium. Maize and soybean seeds were wetted 24 hours at room temperature prior to sowing in pots.
(§1) Regular Arabidopsis, soybean and maize pot experiments used an unfertilized potting soil, which was supplemented at the start of the experiment with 50 ml H2O containing 0.25 g/l NH4NO3 and 0.44 g/l (high phosphate) or no (maize and soybean) or 0.11 g/l KH2PO (Arabidopsis) for low phosphate conditions. […] Compound concentration was 10 μM, calculated based on the total water content after watering, and was added at the start of the experiment (Arabidopsis) or once a week (maize). […] All parameters in the sand experiment, except the rate of leaf 4 (measured the first 4 days after emergence), were measured 19 days after sowing. Measurements in the pot experiments with potting soil were done after 4 weeks of growth, except for leaf 5, which was measured at 26 days. […]

[2] = tested on: Rice; test: Rice plate experiment; assay type: in vivo, rice cultivar Nipponbare; conditions: low phosphate 0.001 mM, 10 μM, 11 days after germination, control 14.4
Description: (§2) All Arabidopsis plant experiments were performed using the Arabidopsis thaliana Columbia-0 background. The Arabidopsis pSPX1::GUS line is described in the Plant Journal 2008, 54: 965-975. For rice, the cultivar Nipponbare was used. For maize, the cultivars DKC 2931 and B104 were used for regular pot experiments and sand-based pot experiments, respectively. For soybean, the cultivar Primus was used. […] The medium was solidified due to the addition of 0.6% Gelrite, unless stated otherwise. […]
Arabidopsis primary root growth experiments were done on MS1/2 on vertical standing plates and roots were measured 11 days after germination. Roots were imaged using a flatbed scanner (EPSON Expression 11000XL) and root length was measured using ImageJ software. Arabidopsis shoot biomass was determined in 11 days after germination and growth on vertical standing plates with modMS. Arabidopsis leaf area was measured 21 days after germination on horizontal plates with modMS medium. Plates were scanned from the top using a flatbed scanner (EPSON Expression 11000XL) and the visible leaf area was measured using ImageJ software. […] Plant height was measured 11 days after germination. […] Plant height was measured 13 days after germination. […]

[3] = tested on: Arabidopsis; test: Anthocyanin quantification, Arabidopsis 96-well plate; assay type: in vivo, Arabidopsis thaliana; conditions: low phosphate, 50 μM, 7 days after germination, control = 1
Description: Col-0 ecotype Arabidopsis seeds were sown in 96-well plates containing 150 μl of low phosphate modMS liquid medium containing 1% of sucrose. Compounds was added in 50 μM concentration (1% DMSO). Eight plants per repeat were collected 7 days after germination and put into a fresh Eppendorf. Extraction and quantification of anthocyanin levels was carried out according to The Plant cell 2013, 25:1641-1656. Anthocyanin levels were quantified by measuring absorption at 530 and 657 nm using a spectrophotometer and normalized to fresh weight input, and expressed relative to the low phosphate control. For pot experiments, the same procedure was followed with one 4-week old plant per sample.

[4] = tested on: Maize; test: Maize growth experiment in pots with mixture of unfertilized potting soil and sand (leaf 5); assay type: in vivo; conditions: maize, pots with unfertilized potting soil and sand, after 29 days; control 38.1
Description: For a subset of compounds, we performed a more extensive analysis on their root hair inducing effect in a dose-response experiment (Table 3). This confirms that the more simple structures 8.14 and 8.14.6 still retain the activity of compound 8. […] To validate this, we performed a maize growth experiment using compound 8 and the, based on the increase of total root hair length, stronger variant 8.14.6. The experiment was conducted in pots with a mixture of unfertilized potting soil and sand, and leaf 5 was measured after 29 days (Table 4).

[5] = tested on: Soybean; test: Soybean pot experiment; assay type: in vivo, soybean cultivar Primus; conditions: low phosphate, 10 μM, 4 weeks
Description: as §2, §1

CC1CN(CC(=O)c2c(N)n(C)c(=O)n(C)c2=O)c2ccccc2O1 (centres unmarked) [Compound 8, 6-amino-1,3-dimethyl-5-[2-(2-methyl-2,3-dihydro-1,4-benzoxazin-4-yl)acetyl]pyrimidine-2,4-dione]
Shoot weight ([1]; 4 weeks, control 4): 4.6 g
Plant height ([1]; 4 weeks, control 57): 60 cm
Leaf 5 ([1]; 26 days, control 40): 48 cm
Plant height [2]: 16 cm
Relative anthocyanin level [3]: 0.6
Leaf 5 [4]: 39.4 cm
Biomass ([5]; control 4.1): 4.4 g
Plant height ([5]; control 50): 55 cm

— patent publication US20240206469A1, “PHOSPHORUS USE EFFICIENCY ENHANCERS AS PLANT GROWTH PROMOTORS” (EUROCHEM ANTWERPEN, priority 2021, published 2024)
